# Publication PMC12267056 (Nature, 2025)
# Substitutions are numbered along the chain they refer to. “And” between values parts separate entries of the source, which are not always exact repeats. Equal values may be shown once. Read-outs that look alike come from different tables or passages of the source.
# Legend:
# [1] = target: T1, human SLC35B1 (wild type) (Homo sapiens, UniProt P78383); assay: Competitive uptake assay: [3H]ADP uptake with 1 mM cold nucleotide; format: biochemical; parameters: made in house; host or cells: Saccharomyces cerevisiae FGY217; conditions: competitor 1mM; sheet ED 6F; SLC35B1 proteoliposomes
# T1 sequence (P78383 1-322): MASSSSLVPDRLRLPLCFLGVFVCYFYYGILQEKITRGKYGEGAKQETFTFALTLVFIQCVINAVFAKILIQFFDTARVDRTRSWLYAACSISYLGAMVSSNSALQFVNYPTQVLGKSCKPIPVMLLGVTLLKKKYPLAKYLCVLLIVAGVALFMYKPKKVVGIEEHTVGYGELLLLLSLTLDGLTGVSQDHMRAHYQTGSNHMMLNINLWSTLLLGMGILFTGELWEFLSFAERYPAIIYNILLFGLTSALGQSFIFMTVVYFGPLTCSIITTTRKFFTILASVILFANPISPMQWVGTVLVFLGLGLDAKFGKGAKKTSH
# [2] = target: T1, human SLC35B1 (wild type); assay: IC50 for competitive inhibition of [3H]ADP uptake in proteoliposomes; format: biochemical; parameters: made in house; host or cells: Saccharomyces cerevisiae FGY217
# [3] = target: T2, SLC35B1-Fv-MBP fusion protein (Homo sapiens, UniProt P78383); assay: IC50 for ADP competition of [3H]-ADP/ATP transport, SLC35B1-Fv-MBP; format: biochemical; conditions: read-out: IC50, external ADP competition of [3H]-ADP/ATP transport; SLC35B1-Fv-MBP fusion protein in proteoliposomes
# T2 construct: TEV site (C); GFP (C); His8 (C); made in house; host or cells: SLC35B1: Saccharomyces cerevisiae FGY217; Fv–MBP: Brevibacillus choshinensis (secreted)
# T2 sequence (P78383 1-322): T1 sequence (P78383 1-322)
# [4] = target: T1, human SLC35B1 (wild type); assay: STD NMR of nucleotide interaction with SLC35B1 proteoliposomes; format: binding; parameters: made in house; host or cells: Saccharomyces cerevisiae FGY217
# [5] = target: T1, human SLC35B1 (wild type); assay: [3H]ADP/ATP exchange kinetics (Michaelis–Menten); format: biochemical; parameters: made in house; host or cells: Saccharomyces cerevisiae FGY217
# [6] = target: T1, human SLC35B1 (wild type); format: binding; parameters: made in house; host or cells: Saccharomyces cerevisiae FGY217; conditions: for ΔTm (average melting temperature increase): purified wild-type SLC35B1–GFP; for GFP fluorescence after heating (source data Fig 1B): 1 mM substrate
# [7] = target: T3, SLC35B1 I257E (Homo sapiens, UniProt P78383, I257E); conditions: variant I257E; 1 mM ATP
# T3 sequence (P78383 1-322 I257E): T1 sequence (P78383 1-322) with I257E
# [8] = tested on: BiP; conditions: cited from earlier work
# [9] = target: T4, SLC35B1 C269A (Homo sapiens, UniProt P78383, C269A); conditions: variant C269A; 37 °C
# T4 sequence (P78383 1-322 C269A): T1 sequence (P78383 1-322) with C269A
# [10] = target: SLC35B1 K120A (Homo sapiens, UniProt P78383, K120A); assay: biochemical; conditions: read-out: ΔTm, individual titrations (source data), variant K120A; 1 mM ATP
# Chain of SLC35B1 K120A (P78383 whole entry K120A): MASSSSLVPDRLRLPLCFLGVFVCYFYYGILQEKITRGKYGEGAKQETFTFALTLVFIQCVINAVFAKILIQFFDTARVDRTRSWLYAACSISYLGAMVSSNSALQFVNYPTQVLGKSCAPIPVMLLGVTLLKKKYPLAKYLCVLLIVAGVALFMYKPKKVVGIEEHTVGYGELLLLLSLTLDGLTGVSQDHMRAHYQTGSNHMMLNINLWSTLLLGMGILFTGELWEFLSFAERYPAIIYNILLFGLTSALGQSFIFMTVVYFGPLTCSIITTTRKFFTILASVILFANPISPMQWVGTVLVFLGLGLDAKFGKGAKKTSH
# [11] = target: T1, human SLC35B1 (wild type); conditions: single temperature 37 °C
# [12] = target: T5, SLC35B1 Q113F (Homo sapiens, UniProt P78383, Q113F); conditions: variant Q113F; 1 mM ATP
# T5 sequence (P78383 1-322 Q113F): T1 sequence (P78383 1-322) with Q113F
# [13] = target: T6, SLC35B1 Q190A (Homo sapiens, UniProt P78383, Q190A); conditions: variant Q190A; 1 mM ATP
# T6 sequence (P78383 1-322 Q190A): T1 sequence (P78383 1-322) with Q190A
# [14] = target: T7, SLC35B1 R276A (Homo sapiens, UniProt P78383, R276A); conditions: variant R276A; 1 mM ATP
# T7 sequence (P78383 1-322 R276A): T1 sequence (P78383 1-322) with R276A
# [15] = target: T3, SLC35B1 I257E; conditions: variant I257E; 37 °C
# [16] = target: SLC35B1 T273A (Homo sapiens, UniProt P78383, T273A); conditions: variant T273A; 1 mM ATP
# Chain of SLC35B1 T273A (P78383 whole entry T273A): as the sequence (P78383 whole entry K120A) above, with A120K, T273A counted along it
# [17] = tested on: crude ER microsomes; conditions: read-out: Km for ATP import into crude ER microsomes; cited from earlier work
# [18] = target: T7, SLC35B1 R276A; conditions: variant R276A; 37 °C
# [19] = target: T8, SLC35B1 K277A (Homo sapiens, UniProt P78383, K277A); conditions: variant K277A; 1 mM ATP
# T8 sequence (P78383 1-322 K277A): T1 sequence (P78383 1-322) with K277A
# [20] = target: SLC35B1 R194A (Homo sapiens, UniProt P78383, R194A); conditions: variant R194A; 1 mM ATP
# Chain of SLC35B1 R194A (P78383 whole entry R194A): as the sequence (P78383 whole entry K120A) above, with A120K, R194A counted along it
smiles,measurement,setting,value
Nc1ncnc2c1ncn2[C@@H]1O[C@H](COP(=O)(O)OP(=O)(O)O)[C@@H](O)[C@H]1O [ADP],[3H]ADP uptake in the presence of cold competitor nucleotide (individual replicates; no-competitor control about 100),[1],-1.767 and -1.033 and 2.879 and 5.424 and 4.368 and 4.176
same,Normalized [3H]-ADP uptake activity (IC50 curve),[2]; external cold nucleotide 0.01 uM,93.6927 and 106.307 and 98.0637
same,Normalized [3H]-ADP uptake activity (IC50 curve),[2]; external cold nucleotide 0.1 uM,87.3862 and 98.7018 and 89.3272
same,Normalized [3H]-ADP uptake activity (IC50 curve),[2]; external cold nucleotide 1 uM,48.8239 and 76.0895 and 44.7547
same,Normalized [3H]-ADP uptake activity (IC50 curve),[2]; external cold nucleotide 10 uM,22.7468 and 19.9682 and 21.5397
same,Normalized [3H]-ADP uptake activity (IC50 curve),[2]; external cold nucleotide 100 uM,8.173 and 6.95 and 8.424
same,IC50,[2]; wild-type SLC35B1 proteoliposomes,1600 nM
same,IC50,[3],2770 ± 410 nM
same,1H integral (off-resonance spectrum),[4],1.99E+11
same,STD integral,[4],3.67E+10
same,ADP/ATP exchange initial rate,[5]; [ADP] 0.2,18.1311 nmols / min* mg and 18.3179 nmols / min* mg and 18.8253 nmols / min* mg
same,ADP/ATP exchange initial rate,[5]; [ADP] 0.5,28.9111 nmols / min* mg and 29.9816 nmols / min* mg and 28.6714 nmols / min* mg
same,ADP/ATP exchange initial rate,[5]; [ADP] 1,44.617 nmols / min* mg and 42.2865 nmols / min* mg and 44.5891 nmols / min* mg
same,ADP/ATP exchange initial rate,[5]; [ADP] 5,114.496 nmols / min* mg and 126.14 nmols / min* mg and 112.107 nmols / min* mg
same,ADP/ATP exchange initial rate,[5]; [ADP] 10,156.88 nmols / min* mg and 168.644 nmols / min* mg and 150.078 nmols / min* mg
same,ADP/ATP exchange initial rate,[5]; [ADP] 20,155.074 nmols / min* mg and 183.464 nmols / min* mg and 182.884 nmols / min* mg
same,ΔTm (average melting temperature increase),[6]; 1 mM nucleotide,5.3 °C
same,"ΔTm, individual titrations (source data)","[6]; 1 mM nucleotide, wild-type SLC35B1–GFP",5.49 and 5.09 and 5.45
same,GFP fluorescence after heating (source data Fig 1B),[6]; temperature 4,98.7528 and 95.6204 and 104.931 and 101.189 and 101.102 and 98.4048
same,GFP fluorescence after heating (source data Fig 1B),[6]; temperature 10,87.2672 and 91.8788 and 95.3593 and 107.889 and 92.923 and 94.9243
same,GFP fluorescence after heating (source data Fig 1B),[6]; temperature 20,90.7477 and 91.6178 and 91.1827 and 94.7503 and 88.9204 and 86.6668
same,GFP fluorescence after heating (source data Fig 1B),[6]; temperature 30,85.9881 and 86.4928 and 88.9204 and 91.0957 and 89.5295 and 91.7048
same,GFP fluorescence after heating (source data Fig 1B),[6]; temperature 40,42.8735 and 42.656 and 39.9412 and 40.3066 and 43.7088 and 44.6834
same,GFP fluorescence after heating (source data Fig 1B),[6]; temperature 50,5.748 and 5.6183 and 5.416 and 5.384 and 5.915 and 6.0377
same,GFP fluorescence after heating (source data Fig 1B),[6]; temperature 60,2.3127 and 2.334 and 2.351 and 2.357 and 2.381 and 2.422
same,GFP fluorescence after heating (source data Fig 1B),[6]; temperature 70,0.4378 and 0.4464 and 0.4526 and 0.4781 and 0.469 and 0.4867
Nc1ncnc2c1ncn2[C@@H]1O[C@H](COP(=O)(O)OP(=O)(O)OP(=O)(O)O)[C@@H](O)[C@H]1O [ATP],"ΔTm, individual titrations (source data)",[7],1.4
same,kcat of BiP,[8],0.000217 s⁻¹
same,Concentration-dependent ATP thermostabilization,[9],still able to interact with ATP
same,ΔTm at 1000 µM,[10],1.17 °C
same,Concentration of maximal thermostabilization,[11],1 mM
same,"ΔTm, individual titrations (source data)",[12],6.34
same,"ΔTm, individual titrations (source data)",[13],5.9
same,"ΔTm, individual titrations (source data)",[14],0.15 and 0.2
same,Concentration-dependent ATP thermostabilization,[15],severely diminished
same,"ΔTm, individual titrations (source data)",[16],2.49
same,Km,[17],3 to 5 µM and 4 µM
same,Concentration-dependent ATP thermostabilization,[18],no clear thermostabilization
same,"ΔTm, individual titrations (source data)",[19],2.51
same,ΔTm (average melting temperature increase),[6]; 1 mM nucleotide,5.2 °C
same,GFP fluorescence after heating (source data Fig 1B),[6]; temperature 40,49.9464
same,DTM (ΔTm with ATP),[20],robust ATP binding
